Reference: ChEMBL document CHEMBL1201862, “PubChem BioAssay data set” (2004)
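Growth conditions: 96-well plates. Treatment: test compound, 48 hours, 5 concentrations. Analysis: linear interpolation between bracketing concentrations; unreached endpoints set to highest concentration. Here, GI50 denotes the concentration required for 50% inhibition of growth.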 The source made the active and inactive calls. No stated cut-off is given here; in the data, active = GI50 up to about 1.1 µM and inactive = higher.

What was measured:
Experiment in all cases: growth of human tumour cells (NCI), 48 h
[1] = system: HOP-92
[2] = system: NCI-H226
[3] = system: RXF 393
[4] = system: OVCAR-4
[5] = system: OVCAR-5
[6] = system: KM-20L2
[7] = system: U-251
[8] = system: OVCAR-8
[9] = system: K562
[10] = system: HOP-62
[11] = system: 786-0
[12] = system: SW-620
[13] = system: ACHN
[14] = system: NCI/ADR-RES
[15] = system: MCF7

SMILES	GI50 [1]	GI50 [2]	GI50 [3]	GI50 [4]	GI50 [5]	GI50 [6]	GI50 [7]	GI50 [8]	GI50 [9]	GI50 [10]	GI50 [11]	GI50 [12]	GI50 [13]	GI50 [14]	GI50 [15]
O=C(O)/C=C/c1ccncc1	> 100 µM (inactive)	> 100 µM (inactive)	> 100 µM (inactive)	> 100 µM (inactive)	> 100 µM (inactive)	> 100 µM (inactive)	0.173 µM (active)	> 100 µM (inactive)	> 100 µM (inactive)	0.223 µM (active)	> 100 µM (inactive)	> 100 µM (inactive)	> 100 µM (inactive)	–	–
O=C(N[C@@H](c1ccccc1)[C@@H](O)C(=O)OCc1ccc2c(c1)OCO2)c1ccccc1	> 86.7 µM (inactive)	> 84.1 µM (inactive)	52.8 µM (inactive)	> 100 µM (inactive)	> 31.6 µM (inactive)	> 100 µM (inactive)	> 100 µM (inactive)	> 100 µM (inactive)	> 100 µM (inactive)	> 100 µM (inactive)	–	> 100 µM (inactive)	–	> 42.1 µM (inactive)	> 100 µM (inactive)
CC1C(=O)CC(c2cccs2)N(N=O)C1c1cccs1 (stereo not given)	23.7 µM (inactive)	> 92 µM (inactive)	24.9 µM (inactive)	50.2 µM (inactive)	> 100 µM (inactive)	71 µM (inactive)	68.2 µM (inactive)	> 42 µM (inactive)	15.8 µM (inactive)	97.7 µM (inactive)	–	54.6 µM (inactive)	–	26.6 µM (inactive)	19.3 µM (inactive)
CC1OC=CC(=O)C1O (stereo not given)	> 100 µM (inactive)	–	> 100 µM (inactive)	> 100 µM (inactive)	> 100 µM (inactive)	> 100 µM (inactive)	> 100 µM (inactive)	> 100 µM (inactive)	> 100 µM (inactive)	> 100 µM (inactive)	–	> 100 µM (inactive)	> 100 µM (inactive)	–	–
CCOC(=O)/C=C/c1c[nH]c(=O)[nH]c1=O	> 75 µM (inactive)	> 75 µM (inactive)	> 75 µM (inactive)	> 75 µM (inactive)	> 75 µM (inactive)	> 75 µM (inactive)	> 75 µM (inactive)	> 75 µM (inactive)	> 75 µM (inactive)	> 49.1 µM (inactive)	–	> 47.3 µM (inactive)	–	> 75 µM (inactive)	> 75 µM (inactive)
CCOC(=O)C1=C(Nc2ccc(Cl)cc2Cl)OC/C1=N\NS(=O)(=O)c1ccc(C)cc1	> 100 µM (inactive)	> 100 µM (inactive)	> 100 µM (inactive)	> 100 µM (inactive)	> 100 µM (inactive)	> 100 µM (inactive)	> 100 µM (inactive)	> 100 µM (inactive)	> 100 µM (inactive)	> 100 µM (inactive)	> 100 µM (inactive)	> 100 µM (inactive)	> 100 µM (inactive)	–	–
N#CCCc1nc2ccc(Br)cc2c(=O)n1-c1ccc(O)c([N+](=O)[O-])c1	25.4 µM (inactive)	19.9 µM (inactive)	18.1 µM (inactive)	20.5 µM (inactive)	46.1 µM (inactive)	46.3 µM (inactive)	> 10 µM (inactive)	26.9 µM (inactive)	23.9 µM (inactive)	36.5 µM (inactive)	19.3 µM (inactive)	22.1 µM (inactive)	30.3 µM (inactive)	–	–
CS/C(=N\C(=S)N(C)C)N(c1ccccc1)c1nc(N(C)C)s[s+]1	20.9 µM (inactive)	–	14 µM (inactive)	12.2 µM (inactive)	–	15.9 µM (inactive)	6.84 µM (inactive)	10.4 µM (inactive)	2.56 µM (inactive)	19.5 µM (inactive)	16.4 µM (inactive)	4.05 µM (inactive)	23.8 µM (inactive)	–	–
CCOC(=O)NC(=O)c1cn(CCSCCOC(=O)NCCCCCCNC(=O)OCCSCCn2cc(C(=O)NC(=O)OCC)c(=O)n(C)c2=O)c(=O)n(C)c1=O	20.9 µM (inactive)	21.1 µM (inactive)	27.6 µM (inactive)	–	> 100 µM (inactive)	39.7 µM (inactive)	16.8 µM (inactive)	20.1 µM (inactive)	–	51.5 µM (inactive)	30.3 µM (inactive)	29.8 µM (inactive)	> 100 µM (inactive)	–	–
CC1(c2cc3c(cc2Br)OCO3)SCCCS1	17.7 µM (inactive)	32.4 µM (inactive)	18.3 µM (inactive)	36.3 µM (inactive)	42.3 µM (inactive)	34.4 µM (inactive)	33 µM (inactive)	47.5 µM (inactive)	31 µM (inactive)	31.1 µM (inactive)	44.3 µM (inactive)	42.1 µM (inactive)	41.4 µM (inactive)	–	–
CN(C)/N=C(\CCN1CCCC1)CC(c1ccccc1)c1c(O)c2ccccc2oc1=O (stereo not given)	> 100 µM (inactive)	> 100 µM (inactive)	> 100 µM (inactive)	> 100 µM (inactive)	> 100 µM (inactive)	> 100 µM (inactive)	–	–	> 100 µM (inactive)	> 100 µM (inactive)	> 100 µM (inactive)	> 100 µM (inactive)	> 100 µM (inactive)	–	–
